Laboratory results published in PMC4128677, “Somatostatin Analogues for Receptor Targeted Photodynamic Therapy” (PLoS ONE, 2014).
Where “and” joins values, the source holds several entries; their conditions need not be identical. Equal entries are not always repeated.

Tests used:
[1] = tested on: K562 sst2+ cells; assay: Cellular uptake in K562 sst2+ and WT cells; format: cell-based, human; conditions: 1 µM
Experimental: Stock solutions of Ce6 and Ce6-conjugates (1 mM) were dissolved in 80% DMSO and were stored in the dark at −20°C. Before experiments, the solutions were diluted to a concentration of 0.1 mM in 20% DMSO. K562 sst2+ or WT (3×10^5) in 1 ml RPMI 1640 serum-free or supplemented with 5% FCS were incubated with Ce6 or with conjugate (1 µM) for 15 min to 24 h in the dark at 37°C. After incubation, the cells were centrifuged, cell pellet dissolved in 2% SDS and fluorescence emission spectra (λexc = 405 nm) recorded. Photosensitizer concentrations were calculated in triplicate according to a calibration curve generated by mixing a known concentration of photosensitizer with a lysated control samples.

[2] = PBS pH = 7.4; used as reference; cited from earlier work
Text: The fluorescence quantum yield of Ce6 in neutral pH was similar to conjugates 1 (ΦF = 0.18 for Ce6 and ΦF = 0.20 for 1).

[3] = Steady-state absorption and fluorescence in PBS; format: physicochemical; conditions: PBS pH = 7.4
Experimental: Steady-State Fluorescence and Absorption Measurements. The fluorescence quantum yields (ΦF) of Ce6 and conjugates in PBS pH 7.4 were determined by a relative method. Ce6 in the buffer at pH 7.4 with the quantum yield of 0.18 [24,32,33] was used as a reference.
The absorption profile of Ce6 and conjugate in PBS of concentration (0.06–1µM) was recorded in Shimadzu spectrophotometer (UV-2101 PC, Duisburg, Germany).
The fluorescence emission of photosensitizers was recorded in a Perkin-Elmer spectrofluorimeter (LS 50B, Massachussetts, USA). Light at 408 nm was used for excitation. The concentration range of compounds matched to the O.D. up to 0.1.

[4] = tested on: K562 sst2+ cells; assay: In vitro PDT phototoxicity, K562 sst2+ cells; format: cell-based, human
Experimental: In vitro PDT experiments were performed to determine the phototoxicity of free Ce6 and conjugates. K562 sst2+ and WT cells were seeded in L-polylysine-coated (10 µg/ml) 96-well (8×10^3/well) and 24-well (4×10^4/well) and incubated overnight in 5% CO2 at 37°C. […] After incubation, cells were washed. Fresh serum-free medium was added, and cells were illuminated with 652 nm to a dose from 0.5 to 5 J cm^−2 at 5 mW.cm^−2. Thereafter, serum-containing medium was added and cells were allowed to grow for an additional 3 days in 5% FCS medium. Toxicity was determined by: measurement of DNA contents using the bisbenzimide fluorescent dye (Hoechst 33258, Boehring Diagnostics, CA, USA) and measurement of mitochondrial dehydrogenase cleavage of WST-1 reagent (Roche Diagnostics, Germany), [39]. Experiments were done in triplicates.

[5] = PBS pH = 7.4; used as reference; cited from earlier work; remark: listed apart in the source
[6] = 1-Octanol/PBS partition coefficient; format: physicochemical; conditions: 1-octanol / PBS pH = 7.4; Poct/buffer = Coct/Cbuffer; stock 0.6 mM in DMSO; duplicates
Experimental: Partition coefficient. Stock solutions of Ce6 and conjugates (0.6 mM) were prepared in DMSO. Lipophilicity was characterized by their partition coefficient Poct/buffer = Coct/Cbuffer between two solvents 1-octanol (oct) and PBS, pH = 7.4 (buffer). Measurements were carried out in duplicates as described by Cunderlikova et al.

[7] = Photobleaching under 652 nm irradiation in PBS; format: physicochemical
Experimental: Photobleaching measurements. The loss of photosensitizer absorbance and fluorescence during irradiation was used to monitor photobleaching. Solutions of Ce6 and Ce6-conjugates were prepared in PBS pH = 7.4. The concentration of photosensitizers were adjusted so that all absorb the same number of photons at irradiated region (O.D. = 0.014 at the λirr. = 652 nm (Biolitec pharma, UK). Data was acquired in quartz cuvettes in aerobic conditions using stirring under uniform, measured irradiation at 5 mWcm^-2. At intervals, the cuvette was removed from magnetic stirrer and absorption and fluorescence emission spectrum (λexc = 405 nm) acquired. The initial absorption bleaching rate constants (kblA) for Ce6 and conjugates were evaluated as reported.

[8] = pH titration of fluorescence/absorbance (pKa); format: physicochemical; conditions: Fmax/A(λexc) versus pH, sigmoidal fit; PBS titrated with HNO3 and NaOH over pH 4.0-8.5; 0.8 µM; λexc = 408 nm
Experimental: pH measurements. The pH titration of PBS was performed with HNO3 and NaOH over pH 4.0-8.5. The final concentration of Ce6 and Ce6-conjugates in solution was 0.8 µM. The pH was measured by Sentron pH meter (Sentron Europe, NL) and the absorption and fluorescence emission (λexc = 408 nm) profiles of solutions were recorded. The inflection point of titration curves (pKa) were evaluated as reported. Briefly, the results of fluorescence titrations are presented in terms of a plot of fluorescence intensity as a function of pH with the constant concentration of the compound used throughout measurements. However, variations of fluorescence intensity are due to at least two contributions: the changes of molar extinction coefficient (differed absorbed intensity) and the changes of quantum efficiency with pH. To eliminate the influence of the molar extinction coefficient variations, the ratio of fluorescence intensity at the peak position to the absorbance at the excitation wavelength was plotted, followed by sigmoidal function fitting procedure (Figures S2-S4).

[9] = tested on: sst2+ AR42J acinar pancreas tumors; assay: Intra-vital fluorescence pharmacokinetics in AR42J tumors in rat skin-fold chambers; format: in vivo; conditions: i.v. tail vein, conjugate 1 0.67 mg/kg, Ce6 0.2 mg/kg, rat skin-fold chamber
Experimental: Intra-vital confocal fluorescence imaging was performed in single sided rat skin-fold chambers transplanted with sst2 ^+ AR42J acinar pancreas tumors as described previously. The study was approved by the animal experimental committee of the Erasmus MC. Chambers were prepared in 12 animals divided into three groups. […] The first group of animals received Ce6 at a dose of 0.2 mg/kg, the second group received conjugate 1 at a dose of 0.67 mg/kg such that the same number of Ce6 molecules were administered to each animal; (equivalent Ce6 concentration of 2.011×10^−4 M).
Animals were anesthetized using isoflurane/O2 and autofluorescence images were recorded. Drug was administered intravenously into the tail vein. Fluorescence images were acquired 5 and 20 minutes after conjugate administration after which the animal was allowed to recover. Subsequent fluorescence images were acquired under anesthesia at 1, 4, 24, 72 and 96 hrs. […] Confocal fluorescence imaging (LSM 510 Meta (Zeiss, Germany)) was performed using a 40× objective. The distribution of Ce6 fluorescence was mapped under 514 nm laser excitation in the lambda mode (539–753 nm). […] Spectra acquired from individual pixels were analyzed as a linear combination of basis spectra and fitted using a singular value decomposition algorithm. The fluorescence of Ce6 and conjugate 1 was determined in ROIs. […]

full width at half maximum of the Q(0,0) absorption band [3]: 21 nm | full width at half maximum of the Soret absorption band [3]: 27 nm | maximum of fluorescence band [3]: 661 nm | maximum of the Q(0,0) absorption band [3]: 655 nm | maximum of the Soret absorption band [3]: 402 nm | LogP, logarithm of partition coefficient [6]: 0.005±0.05 | kblA, rate constant of initial absorption bleaching ([7]; PBS pH = 7.4, 652 nm irradiation at 5 mWcm^-2, O.D. = 0.014 at 652 nm, aerobic, stirring): 25.69 x 10^−2 J^−1 cm^2 | photostability ([7]; PBS, 652 nm irradiation, fluorescence bleaching): low photostability | pKa, inflection point of pH titration curve [8]: 6.71 and 6.71±0.0947
SMILES: C=Cc1c(C)c2cc3nc(c(CC(=O)O)c4[nH]c(cc5nc(cc1[nH]2)C(C)=C5CC)c(C)c4C(=O)O)[C@@H](CCC(=O)O)[C@@H]3C [Ce6, Chlorin e6]
uptake in sst2+ cells compared to WT cells (factor) ([1]; serum-free and 5% FCS medium, fluorescence of lysate, λexc = 405 nm): same result as for conjugate 2 | concentration taken up by sst2+ cells ([1]; 4 h incubation, K562 sst2+): 90 nM | ΦF, fluorescence quantum yield (reference value) [2]: 0.18 | cell survival after PDT compared to control cells ([4]; K562 sst2+, 1 µM, 4 h incubation, serum-free, 652 nm, 5 J.cm^−2, read after 3 days): almost complete inhibition of cell viability | light dose from which phototoxicity was seen ([4]; K562 sst2+, 1 µM, 4 h incubation, 652 nm): 0.5 J.cm^−2 | effect on cell growth of photosensitizer alone in the absence of light ([4]; dark toxicity, K562 cells): no effect on cell growth | ΦΔ, singlet oxygen quantum yield (reference value) [5]: 0.64 and 0.64±0.08 | time of fluorescence peak in tumor tissue [9]: gradually increased over the first 3 days
